Where two headings read alike, the source gives them in different places.
What was measured:
[1] = tested on: Parent elite stiff stalk inbred corn; assay: Preemergence herbicide application to potted corn (fresh weight, visual injury); format: in vivo; settings: for Crop visual injury at 200 g/ha: Zea mays, pre-emergence, 672 h, read-out: % Visual Injury; for Fresh Weight: fresh shoots weighed 4 weeks after treatment, untreated 36.7 g
[2] = tested on: Parent elite stiff stalk inbred corn; assay: Postemergence herbicide application to potted corn (fresh weight, visual injury); format: in vivo; settings: for Fresh Weight: weighed 2 weeks after treatment, untreated 76.4 g; for % visual injury to corn at 200 g/ha / % Visual Injury: 0% no injury, 100% plant death
[3] = tested on: Heterozygous GAT-HRA corn; assay: as above; format: in vivo; settings: for Visual crop injury (%) at 200 g/ha / % Visual Injury: 0% no injury, 100% plant death; for Fresh Weight: weighed 2 weeks after treatment, untreated 98.8 g
[4] = tested on: Heterozygous GAT-HRA corn; assay: Preemergence herbicide application to potted corn (fresh weight, visual injury); format: in vivo; settings: for Crop visual injury at 200 g/ha: Zea mays, pre-emergence, 672 h, read-out: % Visual Injury; for Fresh Weight: fresh shoots weighed 4 weeks after treatment, untreated 47.0 g
control maize = assay: Postemergence herbicide spray of maize at V2 stage, injury evaluated 10-14 days after; format: in vivo; settings: 200 g ai/ha (metsulfuron-methyl 35 g ai/ha)
GAT-HRA maize = assay: as above; format: in vivo; settings: 200 g ai/ha (metsulfuron-methyl 35 g ai/ha)
Experimental: GAT-HRA maize plants were evaluated for tolerance to glyphosate and other herbicides. One protocol used in this evaluation was as follows. At the V2 stage (Ritchie and Hanway (1982), “How a corn plant develops” Spec. Rep. 48. (Coop. Ext. Ser., Iowa State Univ., Ames, Iowa)), plant heights were measured and herbicides were applied by spray application. Ten to fourteen days after the spray application, the transgenic plants were evaluated for injury symptoms and measured for plant height again in order to determine plant growth rates.
Plants were then evaluated at various times after treatment, such as 10 or 14 days after treatment. […] Leaf samples were taken from GAT-HRA plants and used in quantitative PCR analysis and other analyses to determine the number and arrangement of copies of the GAT and HRA polynucleotides that had been integrated into the plant genome.
Other protocols for evaluation included treatment with imidazolinone herbicides, such as the commercial herbicide Lightning® (a combination of imazapyr and imazethapyr), which was applied to GAT-HRA maize at the V2 leaf stage at four times the field label rate (250 g ai/ha). […] Another protocol for evaluation included treatment with imidazolinone herbicides as well as sulfonylurea and glyphosate herbicides. In these tests, GAT-HRA maize was treated with various combinations of Lightning® (imazapyr and imazethapyr), Basis® (rimsulfuron and thifensulfuron-methyl) and WeatherMAX® (glyphosate potassium salt). These herbicides were applied at the V2 stage as follows: Lightning® at twice the field label rate (1.8 oz ai/ac (133 ml ai/ha)), Basis® at twice the field label rate (0.5 oz ai/ac (36.9 ml ai/ha)) and WeatherMax® at four times the field label rate (43 oz ai/ac). Fourteen days after the treatment application, the plants were evaluated. […] “Field label rate” refers to the application rate specified on the product label. Where the application rate for a particular situation is a range of rates, as used herein, the term “field label rate” indicates the upper end of that range. […]

[5] = tested on: Soybeans comprising the lead GAT7 event and also having HRA; assay: Greenhouse test confirming the field trial (Example 6B); format: in vivo, soybean; settings: GAT/HRA Soybeans
From the text: Example 6B provides greenhouse data that confirms the field trial data provided above in Example 6A. Soybeans comprising the lead GAT7 event and also having HRA were used in the studies.

[6] = tested on: Hairy Fleabane (Conyza bonariensis), glyphosate sensitive biotype; assay: Control of hairy fleabane by glyphosate, metsulfuron-methyl and two additives; format: in vivo; settings: 10-15 leaf stage, 200 L ha^−1
Experimental: This example included the same treatments as used in Example 11, except the treatments were carried out on a glyphosate sensitive biotype of Kleinskraalhans (Conyza bonariensis).

[7] = tested on: non-glyphosate resistant ryegrass; assay: Control of ryegrass by glyphosate, metsulfuron-methyl and two additives; format: in vivo; settings: metsulfuron-methyl (BRUSH-OFF) alone
Experimental: The example was conducted on non-glyphosate resistant ryegrass. As provided in Table 23, all treatments that included glyphosate [180 g a.i. L ha^−1 (0.5 L glyphosate (SCAT®))] plus metsulfuron-methyl (BRUSH-OFFS®) (5 and 10 g ha^−1) gave 100% control of the ryegrass.

[8] = preemergence, 200 g/ha, 0% no injury, 100% plant death, mean of four replications
[9] = preemergence, 200 g/ha, mean of four replications
[10] = 200 g/ha, mean of four replications
[11] = Zea mays, post-emergence, 200 g/ha, mean of four replications
[12] = Zea mays, post-emergence, 1870 g/ha

CCOc1nc(F)cc2nc(S(=O)(=O)Nc3c(Cl)cccc3C(=O)OC)nn12 [Chloransulam-methyl, methyl 3-chloro-2-[[(5-ethoxy-7-fluoro-[1,2,4]triazolo [1,5-c]pyrimidin-2-yl)sulfonyl]amino]benzoate]
Crop visual injury at 200 g/ha [1, 8]: 3% | Fresh Weight [1, 9]: 5.5 g | Fresh Weight [2, 10]: 6.8 g | % visual injury to corn at 200 g/ha [2, 11]: 96% | Visual crop injury (%) at 200 g/ha [3, 11]: 3% | Crop visual injury at 200 g/ha [4, 8]: 3%

CCOC(=O)c1ccccc1S(=O)(=O)NC(=O)Nc1nc(Cl)cc(OC)n1 [Chlorimuron-ethyl, ethyl 2-[[[[(4-chloro-6-methoxy-2-pyrimidinyl)amino]carbonyl]amino]sulfonyl]-benzoate]
damage from the treatment (control maize): severely damaged or killed | damage from the treatment (GAT-HRA maize): no significant damage

COc1nn(C(=O)NS(=O)(=O)c2ccccc2OC(F)(F)F)c(=O)n1C [Flucarbazone Na^+, 4,5-dihydro-3-methoxy-4-methyl-5-oxo-N-[[2-(trifluoromethoxy)phenyl]sulfonyl]-1H-1,2,4-triazole-1-carboxamide]
Crop visual injury at 200 g/ha [1, 8]: 100% | Fresh Weight [1, 9]: 0.0 g | Fresh Weight [2, 10]: 3.1 g | % visual injury to corn at 200 g/ha [2, 11]: 100% | Fresh Weight [3, 10]: 86.0 g | Visual crop injury (%) at 200 g/ha [3, 11]: 14% | Crop visual injury at 200 g/ha [4, 8]: 40%

COC(=O)c1ccc(C(F)(F)F)nc1S(=O)(=O)NC(=O)Nc1nc(OC)cc(OC)n1 [Flupyrsulfuron-methyl Na^+, methyl 2-[[[[(4,6-dimethoxy-2-pyrimidinyl)amino]carbonyl]amino]sulfonyl]-6-(trifluoromethyl)-3-pyridinecarboxylate]
Crop visual injury at 200 g/ha [1, 8]: 87% | Fresh Weight [2, 10]: 5.2 g | % visual injury to corn at 200 g/ha [2, 11]: 95% | Visual crop injury (%) at 200 g/ha [3, 11]: 4% | Crop visual injury at 200 g/ha [4, 8]: 90%

CP(=O)(O)CCC(N)C(=O)O (centres unmarked) [Glufosinate ammonium]
Fresh Weight ([2]; 1870 g/ha): 2.4 g | % visual injury to corn at 1870 g/ha [2, 12]: 99% | Fresh Weight ([3]; 1870 g/ha): 112.3 g | Visual crop injury (%) at 1870 g/ha [3, 12]: 1%

CC(C)C1(C)N=C(c2ncccc2C(=O)O)NC1=O (centres unmarked) [Imazapyr]
damage from the treatment (control maize): severely damaged or killed | damage from the treatment (GAT-HRA maize): no significant damage

CCc1cnc(C2=NC(C)(C(C)C)C(=O)N2)c(C(=O)O)c1 (centres unmarked) [Imazethapyr]
% Growth Reduction ([5]; Rimsulfuron 0 + Imazethapyr 560 g ai/ha, Treatment # 4): −1% | % Growth Reduction ([5]; Rimsulfuron 0 + Imazethapyr 1024 g ai/ha, Treatment # 5): 10%

COC(=O)c1ccc(I)cc1S(=O)(=O)NC(=O)Nc1nc(C)nc(OC)n1 [Iodosulfuron-methyl Na^+, methyl 4-iodo-2-[[[[(4-methoxy-6-methyl-1,3,5-triazin-2-yl)amino]carbonyl]amino]sulfonyl]benzoate]
Crop visual injury at 200 g/ha [1, 8]: 92% | Fresh Weight [2, 10]: 3.5 g | % visual injury to corn at 200 g/ha [2, 11]: 100% | Fresh Weight [3, 10]: 95.0 g | Visual crop injury (%) at 200 g/ha [3, 11]: 1% | Crop visual injury at 200 g/ha [4, 8]: 5%

COC(=O)c1ccccc1S(=O)(=O)NC(=O)Nc1nc(C)nc(OC)n1 [Metsulfuron-methyl (BRUSH-OFF ®)]
Control (%) ([6]; metsulfuron-methyl (BRUSH-OFF) 5 g/ha): 100% | Control (%) ([6]; metsulfuron-methyl (BRUSH-OFF) 10 g/ha): 100%

COC(=O)c1ccccc1S(=O)(=O)NC(=O)Nc1nc(C)nc(OC)n1 [Metsulfuron-methyl, methyl 2-[[[[(4-methoxy-6-methyl-1,3,5-triazin-2-yl)amino]carbonyl]amino]sulfonyl]benzoate]
effect on its own [7]: did nothing accept stunt the ryegrass plants slightly | damage from the treatment (control maize): severely damaged or killed | damage from the treatment (GAT-HRA maize): no significant damage

CCCOc1nn(C(=O)NS(=O)(=O)c2ccccc2C(=O)OC)c(=O)n1C [Propoxycarbazone Na^+, methyl 2-[[[(4,5-dihydro-4-methyl-5-oxo-3-propoxy-1H-1,2,4-triazol-1-yl)carbonyl]amino]sulfonyl]benzoate]
Crop visual injury at 200 g/ha [1]: 100% | Fresh Weight [1, 9]: 0.6 g | Fresh Weight [2, 10]: 1.9 g | % visual injury to corn at 200 g/ha [2, 11]: 100% | Visual crop injury (%) at 200 g/ha [3, 11]: 9% | Crop visual injury at 200 g/ha [4]: 100%

COc1cc(OC)nc(Sc2cccc(Cl)c2C(=O)[O-])n1.[Na+] [Pyrithiobac Na^+]
Fresh Weight [1, 9]: 0.0 g | % Visual Injury [2, 10]: 100% | Fresh Weight [2, 10]: 2.8 g | % Visual Injury [3, 10]: 9%

COC(=O)c1ccccc1S(=O)(=O)NC(=O)Nc1nc(C)cc(C)n1 [Sulfometuron-methyl, methyl 2-[[[[(4,6-dimethyl-2-pyrimidinyl)amino]carbonyl]amino]sulfonyl]-benzoate]
Fresh Weight [2, 10]: 2.0 g

COc1cc(OC)nc(NC(=O)NS(=O)(=O)c2ncccc2OCC(F)(F)F)n1 [Trifloxysulfuron Na^+, N-[[(4,6-dimethoxy-2-pyrimidinyl)amino]-carbonyl]-3-(2,2,2-trifluoroethoxy)-2-pyridinesulfonamide]
Crop visual injury at 200 g/ha [1, 8]: 100% | Fresh Weight [1, 9]: 0.0 g | Fresh Weight [2, 10]: 1.0 g | % visual injury to corn at 200 g/ha [2, 11]: 100% | Fresh Weight [3, 10]: 86.6 g | Visual crop injury (%) at 200 g/ha [3, 11]: 29% | Crop visual injury at 200 g/ha [4, 8]: 0% | Fresh Weight [4, 9]: 50.8 g

COC(=O)c1cccc(C)c1S(=O)(=O)NC(=O)Nc1nc(OCC(F)(F)F)nc(N(C)C)n1 [Triflusulfuron-methyl]
Fresh Weight [1, 9]: 26.3 g | % Visual Injury [2, 10]: 100% | Fresh Weight [2, 10]: 2.1 g | % Visual Injury [3, 10]: 8% | Fresh Weight [3, 10]: 110.9 g | Fresh Weight [4, 9]: 53.5 g

O=C(O)CNCP(=O)(O)O [glyphosate (ROUNDUP ®)]
Control (%) ([6]; glyphosate (ROUNDUP, 360 g a.i. L^−1) 0.5 L/ha): 12%

Imazamethabenz-methyl
Fresh Weight [1, 9]: 36.2 g | % Visual Injury [2, 10]: 11% | Fresh Weight [2, 10]: 66.9 g | % Visual Injury [3, 10]: 16% | Fresh Weight [3, 10]: 95.0 g | Fresh Weight [4, 9]: 48.5 g

— US7973218B2, “Methods and compositions for controlling weeds” (Pioneer Hi-Bred International, Inc., priority 2005, dated 2011)
